# Target: T1, P2X7 receptor (Homo sapiens, UniProt Q99572)
# T1 construct: stably expressing the full length P2X7 receptor; expressed in transfected cells
# T1 sequence (Q99572 1-595): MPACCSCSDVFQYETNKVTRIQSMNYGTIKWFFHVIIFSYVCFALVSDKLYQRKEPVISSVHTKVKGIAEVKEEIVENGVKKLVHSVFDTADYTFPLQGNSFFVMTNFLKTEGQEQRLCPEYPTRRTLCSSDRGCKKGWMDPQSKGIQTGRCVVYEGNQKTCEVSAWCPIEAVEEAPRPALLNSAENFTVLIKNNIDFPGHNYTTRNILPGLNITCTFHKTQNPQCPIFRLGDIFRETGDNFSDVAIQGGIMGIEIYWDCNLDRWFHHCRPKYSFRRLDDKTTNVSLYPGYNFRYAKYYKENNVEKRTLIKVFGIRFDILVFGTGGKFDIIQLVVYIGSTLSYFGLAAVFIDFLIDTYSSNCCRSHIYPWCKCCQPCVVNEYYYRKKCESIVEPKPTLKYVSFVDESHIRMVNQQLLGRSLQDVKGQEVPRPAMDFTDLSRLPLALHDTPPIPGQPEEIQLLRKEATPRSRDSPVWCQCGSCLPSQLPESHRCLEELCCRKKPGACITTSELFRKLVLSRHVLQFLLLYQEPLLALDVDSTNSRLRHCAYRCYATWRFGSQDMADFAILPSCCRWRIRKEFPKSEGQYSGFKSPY
# Experiment: Ca++ flux assay (FLIPR) in P2X7-HEK-293 cell line stably expressing the full length P2X7 receptor, Bz-ATP activation
# Assay type: cell-based
# Conditions: P2X7-HEK-293 cells; agonist Bz-ATP; fluorescence as total area over 90 seconds; read-out: P2X7 Ca Flux hu IC50
# Procedure, shortened: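 HEK-293 cells stably expressing full-length P2X7 were loaded with Ca++-sensitive dye for 1 h, with compound added during loading. Cells were stimulated with Bz-ATP on FLIPR. Fluorescence was integrated as total area over 90 s, and IC50 was taken as 50% inhibition of the maximal Ca++ response.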
row,SMILES,IC50 [nM]
1,"Cc1c(Cl)cccc1-n1ccn2c(NCCc3ccccc3)nnc2c1=O [Compound 168, 7-(3-chloro-2-methylphenyl)-3-(phenethylamino)-[1,2,4]triazolo[4,3-a]pyrazin-8(7H)-one]",3150
2,"Cc1c(Cl)cccc1-n1ccn2c(N(C)Cc3ccccc3)nnc2c1=O [Compound 169, 3-(benzyl(methyl)amino)-7-(3-chloro-2-methylphenyl)-[1,2,4]triazolo[4,3-a]pyrazin-8(7H)-one]",1590
3,"Cc1c(Cl)cccc1-n1ccn2c(N(Cc3ccccc3)Cc3ccccc3)nnc2c1=O [Compound 170, 7-(3-chloro-2-methylphenyl)-3-(dibenzylamino)-[1,2,4]triazolo[4,3-a]pyrazin-8(7H)-one]",106

# More lines, in order of falling IC50, values ahead:
row,IC50 [nM],SMILES
1,1040,"Cc1c(Cl)cccc1-n1ccn2c(NC(c3ccccc3)c3ccccc3)nnc2c1=O [Compound 167, 3-(benzhydrylamino)-7-(3-chloro-2-methylphenyl)-[1,2,4]triazolo[4,3-a]pyrazin-8(7H)-one]"
2,585,"Cc1c(Cl)cccc1-n1ccn2c(NCc3ccccc3-c3ccccc3)nnc2c1=O [Compound 166, 3-(biphenyl-2-ylmethylamino)-7-(3-chloro-2-methylphenyl)-[1,2,4]triazolo[4,3-a]pyrazin-8(7H)-one]"
3,229,"Cc1c(Cl)cccc1-n1ccn2c(N(Cc3ccccc3)CC3CC3)nnc2c1=O [Compound 171, 3-(benzyl(cyclopropylmethyl)amino)-7-(3-chloro-2-methylphenyl)-[1,2,4]triazolo[4,3 - a]pyrazin-8(7H)-one]"
